Data: patent US20250381242A1 (INVAIO SCIENCES, INC., priority 2024, published 2025)
No end group written: not given here.

Assays:
E. amylovora = settings: 24 h, 10 μM
X. citri = experiment: Bacterial growth inhibition by OD600 absorbance, X. citri; assay type: cell-based, X. citri subsp. citri (ATCC 49118); settings: peptide 10 μM, 24 hours at 30° C., OD 600 nm
E. coli = experiment: Bacterial growth inhibition by OD600 absorbance, E. coli; assay type: cell-based, E. coli (DH5-alpha); settings: peptide 10 μM, 24 hours at 37° C., OD 600 nm
Procedure, shortened: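 Percent inhibition was calculated from initial and 24 h OD600 readings against DMSO (0.1%) and antibiotic controls. Cultures received 10 μM peptide and were incubated at 30° C. (X. citri) or 37° C. (E. coli).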

L. crescens = settings: 10 μM
A. tumefaciens = settings: 24 h, 10 μM

| Sequence | growth inhibition, E. amylovora (E. amylovora) | growth inhibition, X. citri (X. citri) | growth inhibition, E. coli (E. coli) | growth inhibition, L. crescens (L. crescens) | growth inhibition, A. tumefaciens (A. tumefaciens) |
| --- | --- | --- | --- | --- | --- |
| GMWKKILGKLIR [compound 134] | 100.00% | <90% | <90% | <90% | 100.00% |
| GMWSKLLGHLLR [compound 138] | 100.00% | <90% | <90% | <90% | 100.00% |
| GWKDWAKKAGGWLKKKGPGMAKAALKAAMQ [compound 2] | 100.00% | 100.00% | <90% | <90% | 100.00% |
| GWKKWLRKGAKHLGQAAIKGLAS [compound 46] | 100.00% | 100.00% | 100.00% | <90% | 100.00% |
| GWWRRTVDKVRNAGRKVAGFASKACGALGH [compound 13] | 100.00% | 100.00% | 100.00% | 100.00% | 100.00% |
| GYNYAKKLANLAKKFANALW [compound 66] | 97.23% | 100.00% | <90% | <90% | 99.99% |
| IKKILSKIKKLLK [compound 122] | 93.74% | 100.00% | <90% | <90% | 97.95% |
| INWKKIASIGKEVLKAL [compound 94] | 100.00% | <90% | <90% | <90% | 100.00% |
| IRIRIRPIRIRIRP [compound 98] | 99.58% | <90% | 99.61% | <90% | 99.18% |
| IWSFLIKAATKLLPSLFGGGKKDS [compound 39] | <90% | 100.00% | 100.00% | 92.47% | <90% |
| KFFKRLLKSVRRAVKKFRKKPRLIGLSTLL [compound 8] | 100.00% | 100.00% | 100.00% | <90% | 99.88% |
| KFLKKAKKFGKAFVKIL [compound 83] | 100.00% | <90% | <90% | <90% | 99.31% |
| KFWSLLKKALRLWANVL [compound 76] | 100.00% | 100.00% | 100.00% | 99.76% | 100.00% |
| KILKRLAAKIKKIL [compound 113] | <90% | 100.00% | <90% | <90% | <90% |
| KKFLHSAKKWLKAFVKLFKNW [compound 33] | <90% | 100.00% | 100.00% | 96.12% | 100.00% |
| KKIGKKAAKKVIVKAIQAIV [compound 73] | 99.94% | <90% | <90% | <90% | <90% |
| KKLIKVFAKGFKKAKKLFKGIG [compound 52] | 100.00% | 100.00% | <90% | <90% | 100.00% |
| KLLKKAGKLLKKAGKLLKKAG [compound 71] | 100.00% | 100.00% | <90% | <90% | 100.00% |
| KNWKGIAGMAKKLLGKNWKLM [compound 59] | 100.00% | 100.00% | <90% | <90% | 99.61% |

| Sequence | growth inhibition, E. amylovora (E. amylovora) | growth inhibition, X. citri (X. citri) | growth inhibition, E. coli (E. coli) | growth inhibition, L. crescens (L. crescens) | growth inhibition, A. tumefaciens (A. tumefaciens) |
| --- | --- | --- | --- | --- | --- |
| KWAVRIIRKFIKGFIS [compound 88] | 100.00% | <90% | 96.20% | <90% | 100.00% |
| KWKSFIKKLTKKFLHSAKKF [compound 49] | 100.00% | 100.00% | <90% | <90% | 100.00% |
| KWKSFIKNLEKVLKKGPILANLVSIV [compound 23] | 100.00% | 100.00% | 100.00% | 99.03% | 100.00% |
| KWLKKWLKKWLK [compound 103] | 100.00% | <90% | 98.34% | <90% | 100.00% |
| KWVKKWVKKWVK [compound 110] | 98.51% | 100.00% | <90% | <90% | <90% |
| KWYKKWYKKWYKKWYK [compound 54] | 100.00% | 100.00% | 100.00% | <90% | 99.49% |
| LHRLVKLVAALLRGYASKVDTH [compound 53] | 100.00% | 100.00% | 100.00% | <90% | 100.00% |
| LNWGALLKHLLK [compound 139] | 100.00% | <90% | <90% | <90% | 100.00% |
| LRFLKKALKKLF [compound 129] | 93.29% | <90% | <90% | <90% | 98.87% |
| LRFLKKILKHLF [compound 120] | 100.00% | 100.00% | 100.00% | <90% | 100.00% |
| LVQRGRFGRFLKKVRRFIPKVIIAAQIGSRFG [compound 6] | 98.64% | 100.00% | 99.36% | <90% | 100.00% |
| QKRPRVRLSAWKKIWKPGIKKWIK [compound 21] | 100.00% | 100.00% | <90% | <90% | 96.97% |
| RFRRLFRIRVRVLKKI [compound 72] | 100.00% | 100.00% | <90% | <90% | 100.00% |
| RKYVRFLHRWVKYFRAYL [compound 47] | <90% | <90% | 99.75% | <90% | <90% |
| RWKIFKKPFKISIHL [compound 90] | 100.00% | <90% | 98.69% | <90% | 100.00% |
| SWKSMAKKLKEYMEKLKQRA [compound 50] | 100.00% | <90% | <90% | <90% | 99.59% |
| WFGHLYRGITKVVKHVHGLLKG [compound 40] | 100.00% | 100.00% | 100.00% | <90% | 100.00% |
| WFGKLYRGITSVVKKVKGLLSG [compound 55] | 100.00% | 100.00% | 100.00% | <90% | 100.00% |
| WIKIWKKIIKKWKK [compound 91] | 100.00% | <90% | <90% | <90% | 98.97% |
